{"source": "patent US20250195464A1", "about": "“ALOTAKETAL COMPOUNDS AND DERIVATIVES THEREOF FOR USE AS ANTIVIRAL AGENTS” (priority 2022, published 2025)", "tested_on": "SARS-CoV-2 Omicron", "assay": "microbe, parasite or virus in culture", "assay_type": "cell-based", "details": "Severe acute respiratory syndrome coronavirus 2, Calu-3", "note": "Like-named read-outs stand apart in the source and are kept apart here.", "data": [{"smiles": "CC(=O)O[C@]1(C)C[C@@H](/C=C(\\C)CCC=C(C)C)O[C@@]2(C=C(CO)[C@H]3CC(=O)C(C)=C[C@H]3O2)C1", "note": "[Alotaketal C]", "values": [{"measurement": "EC50", "setting": "read-out: Nucleocapsid EC50, Omicron", "result": 140, "unit": "nM"}, {"measurement": "EC50", "setting": "read-out: dsRNA EC50, Omicron", "result": 1540, "unit": "nM"}]}]}
